Results published in patent US12076308B2, “Terpene control in scaleable cannabinoid medicinal formulations” (priority 2015, dated 2024).
Like-named read-outs stand apart in the source and are kept apart here.

Tests used:
[1] = War veterans with PTSD given cannabinoid infused chocolates; format: in vivo, human; settings: THC alone
Method: In a separate set of observations and tests, war veterans suffering from post-traumatic stress disorder (PTSD) were observed purchasing large amounts of un-tested hashish from local dispensaries on sale days. After observing this, samples of this hashish were tested. […] Veterans suffering from PTSD received cannabinoid infused chocolates with controlled dosages. This process identified that chocolates infused with 44 mg of THC and 4 mg of CBD were effective in treating these veterans PTSD. Information reported by veterans identified that many of them were also suffering from pain and had been consuming opiates to combat the pain. The opiates that these veterans were taking reportedly exacerbated PTSD symptoms. […] Patients of Laguna Honda Hospital in California were also provided medications that included both THC and CBD and reported benefit.

pancreatic cancer = settings: cited from earlier work; for tumor volume over time: mice, repeated injections, compared with control group curve CRTL; for effect on pancreatic cancer cells/tumors in mice: reported by Donadelli, high dosages of CB1 ligand

SMILES | benefit when treating pain combined with PTSD, versus combined THC/CBD medication [1] | psychotic side effects associated with PTSD [1] | tumor volume over time (pancreatic cancer) | effect on pancreatic cancer cells/tumors in mice (pancreatic cancer) | effect on pancreatic cancer cells/tumors in mice (pancreatic cancer; listed as Rimonabant)
CCCCCc1cc(O)c2c(c1)OC(C)(C)[C@@H]1CCC(C)=C[C@@H]21 [THC, tetrahydrocannabinol] | either not effective or provided limited benefits | increased psychotic side effects | – | – | –
Nc1ccn([C@@H]2O[C@H](CO)[C@@H](O)C2(F)F)c(=O)n1 [Gemcitabine] | – | – | grew at even a slower rate | – | –
Cc1c(C(=O)NN2CCCCC2)nn(-c2ccc(Cl)cc2Cl)c1-c1ccc(Cl)cc1 [SR1, Rimonabant] | – | – | grew at a slower rate | reducing pancreatic cancer tumors | shrunk pancreatic cancer cells
